This note sets out measurements from BindingDB's records for PubMed 11082457 (Centre De Recherches De Croissy, 2000).

pKi: −log10 of the molar value.

Experiment [1] deals with T1, Alpha-1B adrenergic receptor (Homo sapiens, UniProt P35368).
T1 sequence (P35368 whole entry): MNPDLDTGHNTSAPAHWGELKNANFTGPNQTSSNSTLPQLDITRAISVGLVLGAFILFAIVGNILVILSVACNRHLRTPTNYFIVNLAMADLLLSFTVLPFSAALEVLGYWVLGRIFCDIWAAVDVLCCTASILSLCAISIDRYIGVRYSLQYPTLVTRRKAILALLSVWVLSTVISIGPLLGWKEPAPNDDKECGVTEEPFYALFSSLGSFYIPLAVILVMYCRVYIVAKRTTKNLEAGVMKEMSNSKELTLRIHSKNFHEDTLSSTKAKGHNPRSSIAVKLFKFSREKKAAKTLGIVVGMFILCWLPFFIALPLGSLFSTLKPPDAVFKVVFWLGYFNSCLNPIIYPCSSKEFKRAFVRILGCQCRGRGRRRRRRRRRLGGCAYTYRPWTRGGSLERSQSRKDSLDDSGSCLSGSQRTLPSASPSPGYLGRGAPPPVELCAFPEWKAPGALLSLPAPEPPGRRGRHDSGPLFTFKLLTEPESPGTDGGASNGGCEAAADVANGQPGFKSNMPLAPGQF

In experiment [2] the target is T2, Alpha-2C adrenergic receptor (Rattus norvegicus, UniProt P22086).
T2 sequence (P22086 whole entry): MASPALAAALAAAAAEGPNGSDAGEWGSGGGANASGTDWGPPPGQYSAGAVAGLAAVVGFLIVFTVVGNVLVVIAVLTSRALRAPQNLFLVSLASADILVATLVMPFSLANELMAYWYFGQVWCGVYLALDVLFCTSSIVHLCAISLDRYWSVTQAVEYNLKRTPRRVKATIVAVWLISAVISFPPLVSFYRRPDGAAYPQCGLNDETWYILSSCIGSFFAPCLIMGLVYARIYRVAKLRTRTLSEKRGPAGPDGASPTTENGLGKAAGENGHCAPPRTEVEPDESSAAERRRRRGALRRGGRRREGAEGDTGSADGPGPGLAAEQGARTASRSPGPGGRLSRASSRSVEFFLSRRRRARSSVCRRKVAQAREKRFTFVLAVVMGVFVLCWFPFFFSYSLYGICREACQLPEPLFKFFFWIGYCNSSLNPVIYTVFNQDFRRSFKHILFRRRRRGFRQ

Another experiment addresses Nischarin (Rattus norvegicus, UniProt Q4G017).
Experiment [3] concerns the target T3, Amine oxidase [flavin-containing] B (Rattus norvegicus, UniProt P19643).
T3 sequence (P19643 whole entry): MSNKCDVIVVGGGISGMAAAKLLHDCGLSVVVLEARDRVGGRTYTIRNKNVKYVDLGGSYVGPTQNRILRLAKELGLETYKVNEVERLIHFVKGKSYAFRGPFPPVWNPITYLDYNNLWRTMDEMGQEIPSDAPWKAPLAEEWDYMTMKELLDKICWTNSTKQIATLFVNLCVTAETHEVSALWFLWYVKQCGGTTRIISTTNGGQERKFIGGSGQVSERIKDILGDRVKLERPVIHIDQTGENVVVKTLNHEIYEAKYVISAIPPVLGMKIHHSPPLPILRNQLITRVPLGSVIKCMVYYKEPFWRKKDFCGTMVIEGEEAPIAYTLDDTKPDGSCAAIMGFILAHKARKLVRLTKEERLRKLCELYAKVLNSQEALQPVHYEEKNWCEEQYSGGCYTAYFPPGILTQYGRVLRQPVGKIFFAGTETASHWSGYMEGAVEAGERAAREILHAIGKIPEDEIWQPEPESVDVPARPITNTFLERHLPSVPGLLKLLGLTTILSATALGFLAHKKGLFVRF

Experiment [4] addresses T4, Alpha-1A adrenergic receptor (Homo sapiens, UniProt P35348).
T4 sequence (P35348 whole entry): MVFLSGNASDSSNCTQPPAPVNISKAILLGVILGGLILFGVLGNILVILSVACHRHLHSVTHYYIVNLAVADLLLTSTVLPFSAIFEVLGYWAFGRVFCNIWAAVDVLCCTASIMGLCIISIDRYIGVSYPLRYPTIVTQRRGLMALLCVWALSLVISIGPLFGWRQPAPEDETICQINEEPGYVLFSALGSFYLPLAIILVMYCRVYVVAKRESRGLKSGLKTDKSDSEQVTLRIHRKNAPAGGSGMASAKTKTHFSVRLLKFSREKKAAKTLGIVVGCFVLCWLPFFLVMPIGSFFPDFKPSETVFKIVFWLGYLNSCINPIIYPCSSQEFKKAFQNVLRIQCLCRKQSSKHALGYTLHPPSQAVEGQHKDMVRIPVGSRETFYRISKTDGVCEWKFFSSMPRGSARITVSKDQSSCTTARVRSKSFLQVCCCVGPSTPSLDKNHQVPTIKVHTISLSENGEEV

Experiment [5] concerns the target Sodium-dependent noradrenaline transporter (Homo sapiens, UniProt P23975).
For experiment [6], the target named is T5, Alpha-1B adrenergic receptor (Rattus norvegicus, UniProt P15823).
T5 sequence (P15823 whole entry): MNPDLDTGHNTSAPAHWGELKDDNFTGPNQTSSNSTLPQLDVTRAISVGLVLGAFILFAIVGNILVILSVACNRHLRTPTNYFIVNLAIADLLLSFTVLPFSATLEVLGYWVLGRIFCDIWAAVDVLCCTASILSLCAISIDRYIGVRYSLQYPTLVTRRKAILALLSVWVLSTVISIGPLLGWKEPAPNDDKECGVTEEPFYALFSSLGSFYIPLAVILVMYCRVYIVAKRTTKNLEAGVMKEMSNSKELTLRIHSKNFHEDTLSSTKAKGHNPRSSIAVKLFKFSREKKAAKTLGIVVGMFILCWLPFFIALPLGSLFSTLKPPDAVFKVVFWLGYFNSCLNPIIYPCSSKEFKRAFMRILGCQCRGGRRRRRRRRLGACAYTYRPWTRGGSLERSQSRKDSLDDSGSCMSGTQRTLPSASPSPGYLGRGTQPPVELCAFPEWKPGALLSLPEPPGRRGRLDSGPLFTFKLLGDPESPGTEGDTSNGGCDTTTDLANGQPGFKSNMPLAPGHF

Sequence of Nischarin (Q4G017 whole entry): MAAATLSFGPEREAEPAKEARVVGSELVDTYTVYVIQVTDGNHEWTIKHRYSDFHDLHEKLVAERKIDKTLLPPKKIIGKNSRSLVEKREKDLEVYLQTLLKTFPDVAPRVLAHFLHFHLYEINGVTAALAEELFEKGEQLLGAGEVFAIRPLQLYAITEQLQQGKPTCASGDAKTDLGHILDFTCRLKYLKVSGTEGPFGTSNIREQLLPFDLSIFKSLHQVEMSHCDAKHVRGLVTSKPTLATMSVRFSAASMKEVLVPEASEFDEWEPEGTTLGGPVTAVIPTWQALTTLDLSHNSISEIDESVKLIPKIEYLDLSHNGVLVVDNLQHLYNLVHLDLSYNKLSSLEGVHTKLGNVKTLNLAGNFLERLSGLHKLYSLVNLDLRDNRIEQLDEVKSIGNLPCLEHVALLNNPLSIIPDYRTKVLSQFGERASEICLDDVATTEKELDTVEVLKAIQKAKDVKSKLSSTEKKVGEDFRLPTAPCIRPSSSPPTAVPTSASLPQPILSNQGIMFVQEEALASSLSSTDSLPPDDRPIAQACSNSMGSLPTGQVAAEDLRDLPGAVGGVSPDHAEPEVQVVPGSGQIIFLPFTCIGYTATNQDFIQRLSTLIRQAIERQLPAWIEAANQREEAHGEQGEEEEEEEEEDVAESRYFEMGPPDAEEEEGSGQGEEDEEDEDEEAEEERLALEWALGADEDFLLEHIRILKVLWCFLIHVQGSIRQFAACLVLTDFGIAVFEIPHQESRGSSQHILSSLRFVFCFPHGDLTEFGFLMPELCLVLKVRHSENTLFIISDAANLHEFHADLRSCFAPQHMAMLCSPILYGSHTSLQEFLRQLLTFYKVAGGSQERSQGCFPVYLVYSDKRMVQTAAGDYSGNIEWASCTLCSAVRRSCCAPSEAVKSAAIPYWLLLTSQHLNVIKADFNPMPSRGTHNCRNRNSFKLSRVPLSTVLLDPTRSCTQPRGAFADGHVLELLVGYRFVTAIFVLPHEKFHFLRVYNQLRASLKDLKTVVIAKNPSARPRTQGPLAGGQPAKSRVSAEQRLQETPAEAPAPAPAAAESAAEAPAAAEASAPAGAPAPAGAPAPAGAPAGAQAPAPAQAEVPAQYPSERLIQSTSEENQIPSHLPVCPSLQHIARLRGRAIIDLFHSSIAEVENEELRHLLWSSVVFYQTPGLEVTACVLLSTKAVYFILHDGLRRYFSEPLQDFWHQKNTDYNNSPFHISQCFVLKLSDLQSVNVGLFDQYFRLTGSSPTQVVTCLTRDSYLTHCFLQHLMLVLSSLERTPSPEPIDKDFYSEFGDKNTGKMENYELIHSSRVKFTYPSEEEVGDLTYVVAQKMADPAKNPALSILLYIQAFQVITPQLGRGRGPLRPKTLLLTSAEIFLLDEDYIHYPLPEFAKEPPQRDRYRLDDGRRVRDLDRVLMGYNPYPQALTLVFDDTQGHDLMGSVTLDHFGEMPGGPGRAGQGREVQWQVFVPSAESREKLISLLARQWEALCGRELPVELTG
Sequence of Sodium-dependent noradrenaline transporter (P23975 whole entry): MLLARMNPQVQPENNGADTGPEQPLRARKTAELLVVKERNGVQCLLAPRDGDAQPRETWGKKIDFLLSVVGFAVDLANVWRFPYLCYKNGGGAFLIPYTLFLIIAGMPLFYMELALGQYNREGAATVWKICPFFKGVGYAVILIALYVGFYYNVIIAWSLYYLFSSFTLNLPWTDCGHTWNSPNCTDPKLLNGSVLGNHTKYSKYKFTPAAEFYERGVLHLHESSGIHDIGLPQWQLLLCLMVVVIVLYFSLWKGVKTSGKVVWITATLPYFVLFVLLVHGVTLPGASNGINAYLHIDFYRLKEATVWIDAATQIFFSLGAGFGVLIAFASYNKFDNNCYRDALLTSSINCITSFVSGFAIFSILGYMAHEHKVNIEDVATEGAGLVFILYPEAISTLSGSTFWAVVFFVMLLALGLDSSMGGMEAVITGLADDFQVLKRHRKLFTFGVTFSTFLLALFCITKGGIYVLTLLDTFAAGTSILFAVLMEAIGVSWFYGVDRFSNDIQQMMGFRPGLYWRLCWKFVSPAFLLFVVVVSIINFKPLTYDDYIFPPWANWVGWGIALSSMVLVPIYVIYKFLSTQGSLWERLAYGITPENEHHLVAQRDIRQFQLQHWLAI

In the case of `Cc1cccc([C@@H](C)c2cnc[nH]2)c1C`, the negative logarithm of the Ki (pKi) in experiment [1] is 6.50; in experiment [2] it was 9.00; at Nischarin, 7.30; in experiment [3] it was 6.00; in experiment [4], 6.70; in experiment [5], 6.00. In addition, the pKi in experiment [6] is 6.50.
In the case of `NC1=NC2(CCc3ccccc3C2)CO1` (centres undefined) [S18616], the pKi in experiment [1] was 7.70; in experiment [2], 9.80; at Nischarin, 7.10; in experiment [3], 6.00; in experiment [4] it was 8.40; in experiment [5] it was 6.00. The pKi in experiment [6] is 7.00.

By pKi is commonly meant the Ki on a negative log10 scale, so that one unit is a factor of ten. Higher therefore signals a low Ki.
